Data taken from US11780851B2, “LRRK2 inhibitors” (H. Lundbeck A/S, priority 2021, dated 2023).
Read-outs that look alike come from different tables or passages of the source.

Experiments:
LRRK2 G2019S = target: T1, LRRK2 G2019S (Homo sapiens, UniProt Q5S007, G2019S); assay: LRRK2 G2019S kinase activity assay (LanthaScreen TR-FRET); type: biochemical; details: 250 pM LRRK2 G2019S, 1.3 mM ATP, 3 h at 30° C.; n≥2 tests
T1 construct: purchased Invitrogen (Life Technologies Corporation)
Procedure, shortened: (§1)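 TR-FRET measured phosphorylation of fluorescein-ERM LRRKtide by human LRRK2 residues 970–2527, wild-type or G2019S, detected with a terbium anti-phospho-LRRKtide antibody. The 520/495 nm ratio was normalized to uninhibited and inhibitor controls. IC50 came from a Hill fit, log-averaged over independent experiments.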

LRRK2 WT = target: T2, LRRK2 WT (Homo sapiens, UniProt Q5S007); assay: LRRK2 wild-type kinase activity assay (LanthaScreen TR-FRET); type: biochemical; details: 1 nM LRRK2 WT, 1.3 mM ATP, 3.5 h at 30° C.; n≥2 tests
T2 construct: comprises residue 970 to 2527 of the full length human wild-type LRRK2 kinase; purchased Invitrogen (Life Technologies Corporation)
T2 sequence (Q5S007 970-2527): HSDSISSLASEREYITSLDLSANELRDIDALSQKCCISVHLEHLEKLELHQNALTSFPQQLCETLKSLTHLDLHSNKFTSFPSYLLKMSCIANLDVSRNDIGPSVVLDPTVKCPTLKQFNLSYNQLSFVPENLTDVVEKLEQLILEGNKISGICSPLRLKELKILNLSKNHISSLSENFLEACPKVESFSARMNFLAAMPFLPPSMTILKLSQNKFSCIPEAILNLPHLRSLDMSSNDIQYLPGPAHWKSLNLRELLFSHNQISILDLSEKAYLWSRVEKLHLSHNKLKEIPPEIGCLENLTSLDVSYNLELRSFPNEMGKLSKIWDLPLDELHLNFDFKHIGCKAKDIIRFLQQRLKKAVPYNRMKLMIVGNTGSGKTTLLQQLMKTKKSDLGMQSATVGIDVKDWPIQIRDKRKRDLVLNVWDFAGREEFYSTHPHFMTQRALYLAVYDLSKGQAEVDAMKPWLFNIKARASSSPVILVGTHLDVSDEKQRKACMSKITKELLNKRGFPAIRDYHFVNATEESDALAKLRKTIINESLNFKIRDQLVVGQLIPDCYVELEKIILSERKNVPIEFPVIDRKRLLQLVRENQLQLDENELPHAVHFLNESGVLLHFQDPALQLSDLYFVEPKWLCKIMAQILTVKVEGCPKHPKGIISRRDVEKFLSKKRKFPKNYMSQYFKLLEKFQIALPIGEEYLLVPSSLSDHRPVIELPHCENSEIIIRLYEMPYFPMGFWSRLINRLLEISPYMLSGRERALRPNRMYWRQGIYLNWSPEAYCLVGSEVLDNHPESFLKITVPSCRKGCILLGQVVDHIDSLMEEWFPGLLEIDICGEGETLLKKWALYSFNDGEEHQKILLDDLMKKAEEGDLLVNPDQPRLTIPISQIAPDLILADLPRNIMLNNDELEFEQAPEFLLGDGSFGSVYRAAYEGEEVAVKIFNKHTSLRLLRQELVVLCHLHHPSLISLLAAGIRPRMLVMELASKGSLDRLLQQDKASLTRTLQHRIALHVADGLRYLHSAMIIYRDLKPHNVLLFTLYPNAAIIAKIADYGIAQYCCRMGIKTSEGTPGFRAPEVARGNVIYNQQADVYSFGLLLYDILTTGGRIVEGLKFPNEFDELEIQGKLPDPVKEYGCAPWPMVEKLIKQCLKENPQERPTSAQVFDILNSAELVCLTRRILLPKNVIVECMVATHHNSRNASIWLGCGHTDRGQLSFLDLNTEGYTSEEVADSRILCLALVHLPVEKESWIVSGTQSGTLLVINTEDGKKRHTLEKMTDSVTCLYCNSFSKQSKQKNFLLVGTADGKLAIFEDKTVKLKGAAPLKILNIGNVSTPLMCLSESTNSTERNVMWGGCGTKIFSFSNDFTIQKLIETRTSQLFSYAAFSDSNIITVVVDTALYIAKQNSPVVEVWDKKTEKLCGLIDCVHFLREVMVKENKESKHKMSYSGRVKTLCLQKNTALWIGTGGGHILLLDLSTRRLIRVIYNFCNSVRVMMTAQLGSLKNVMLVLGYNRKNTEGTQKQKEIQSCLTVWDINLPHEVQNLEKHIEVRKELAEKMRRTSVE
Procedure, shortened: as §1

[1] = test system: pooled donor, cryopreserved hepatocytes; assay: Hepatocyte intrinsic clearance assay; type: in vitro ADME, human; details: 0.1 μM, 2 h at 37° C., 1×10^6 hepatocytes/mL; * measured on 3 separate occasions, ** on a single occasion
Method: (§2) Test compounds (final concentration 0.1 μM, 0.05% organic) were incubated for 2 h at 37° C., with shaking, in supplemented Leibovitz L-15 media (pH7.4) containing commercially sourced, pooled donor, cryopreserved hepatocytes (final concentration 1×10^6 hepatocytes/m L). The CLint reactions (350 μL) were initiated by addition of test compound. Aliquots (25 μL) were taken at 1, 5, 10, 15, 30, 60, 90 and 120 minutes and then protein crashed with ice-cold acetonitrile containing internal standard (150 μL) then centrifuged (1960 g for 20 minutes at 4° C.). Supernatant was diluted (1:4) with deionized water then analyzed by liquid chromatography (LC)-tandem mass spectrometry (MS/MS). The intrinsic clearances (CLint) were calculated from the slope (k) of the linear regressions of percentages of compound remaining in incubation against incubation time, according to equations 2 and 3.

[2] = Rat B/P (brain disposition); type: in vivo, male Sprague-Dawley rats; details: male, Sprague-Dawley; for concentration at 1 h / Kp uu at 1 h / Kp at 1 h: time point 1.0 h; for concentration at 1 h / Kp at 1 h / concentration at 0.5 h / Kp at 0.5 h: mean ± stdev; for Kp uu at 1 h / Kp at 1 h / Kp uu at 0.5 h / Kp at 0.5 h: brain/plasma; for Kp uu at 1 h / Kp uu at 0.5 h: fubrain from brain homogenate; for Kp at 1 h / Kp at 0.5 h: n = 3; for concentration at 0.5 h / Kp uu at 0.5 h / Kp at 0.5 h: time point 0.5 h
Procedure, shortened: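 Male Sprague-Dawley rats (n=3, standard body weight) were used to assess brain disposition. Plasma and brain homogenates underwent protein precipitation with acetonitrile containing internal standard, then LC-MS/MS measurement using an optimized method. Compound levels were quantified against matrix-matched calibration standards, and brain Kp was calculated as total brain concentration divided by total plasma concentration.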

[3] = Free fraction in plasma (equilibrium dialysis); type: in vitro ADME, male Sprague-Dawley rat; details: rat plasma, 1 μM, 5 h at 37° C.
Procedure, shortened: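 Equilibrium dialysis (12-14 kDa membrane) of male Sprague-Dawley rat or female Gottingen minipig plasma, or rat brain homogenate diluted 1:4, against 100 mM sodium phosphate pH 7.4, compound at 1 μM nominal (≤0.5% DMSO), 5 h at 37 °C. LC/MS-MS quantification; percent free calculated, with dilution factor 4 for brain.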

GSH adduct screening = type: in vitro ADME, human; details: 1 μM, 3 h at 37° C., HLM 0.5 mg/mL, NADPH, with and without GSH
Method: Test compounds (final concentration 1 μM, 0.25% organic) were incubated for 3 h at 37° C. in commercially sourced, pooled donor, human liver microsomes (HLM, final concentration 0.5 mg/mL) with and without addition of glutathione (GSH; final concentration […]). The metabolic reaction was initiated by addition of microsomal solution to the mixture of cofactor NADPH (final concentration 1 mM), test compound and GSH. After 3 h of incubation in a water bath at 37° C., the reaction was stopped by addition of 0.2% formic acid in acetonitrile, followed by mixing and centrifugation (16000 g for 5 minutes). Supernatant was diluted (1:1) with HPLC water then analyzed by liquid chromatography (LC)-quadrupole time-of-flight mass spectrometry (QTOF-MS). Accurate mass MS and MS/MS spectra from samples with GSH and without GSH, respectively, were compared to identify detectable GSH and/or cysteine related adducts.

[4] = Hepatocyte intrinsic clearance assay; type: in vitro ADME, human; details: human, pooled donor, cryopreserved hepatocytes, pH 7.4, 0.1 μM, 2 h at 37° C., 1×10^6 hepatocytes/mL; * measured on 3 separate occasions, ** on a single occasion
Method: as §2

[5] = brain, oral gavage 10 mg/kg, n = 3, read-out: Total brain concentration
[6] = plasma, oral gavage 10 mg/kg, n = 3, read-out: Total plasma concentration

T1 sequence (Q5S007 970-2527 G2019S): as the sequence (Q5S007 970-2527) above, with G1050S counted along it

SMILES	IC50 (LRRK2 G2019S) [nM]	IC50 (LRRK2 WT) [nM]	CLint [1] [mL/min/kg]	fuplasma (% free) [3] [% free]	Adduct detected in GSH supplemented HLMs (GSH adduct screening)	other results
Cc1c2c(nn1[C@@H]1CCO[C@H](C)C1)OCCCn1nc(Cl)c3cnc(nc31)N2 (single isomer, unassigned) [Example 19]	3.9	13	<4	24.0	+GSH	concentration at 0.5 h [2, 5]: 1430 ± 134 ng/g; Kp uu at 0.5 h ([2]; oral gavage 10 mg/kg): 0.4 ± 0.04; Kp at 0.5 h ([2]; oral gavage 10 mg/kg): 1.28 ± 0.13; concentration at 0.5 h [2, 6]: 1140 ± 229 ng/mL
Cc1c2c(nn1[C@H]1CCCOCC1)OCCCn1nc(Cl)c3cnc(nc31)N2 (single isomer, unassigned) [Example 30, (+)-(R) or (S)-8-Chloro-3-methyl-2-(oxepan-4-yl)-2,4,12,13-tetrahydro-11H-5,7-(azenometheno)dipyrazolo[3,4-b:5′,1′-g][1]oxa[4,6,8]triazacycloundecine]	4	12	10.5	26.5	–	concentration at 1 h ([2]; brain, oral gavage 5 mg/kg, n = 3, read-out: Total brain concentration): 427 ± 96 ng/g; Kp uu at 1 h ([2]; oral gavage 5 mg/kg): 0.73 ± 0.06; Kp at 1 h ([2]; oral gavage 5 mg/kg): 2.05 ± 0.18; concentration at 1 h ([2]; plasma, oral gavage 5 mg/kg, n = 3, read-out: Total plasma concentration): 210 ± 50 ng/mL
Cc1c2c(nn1[C@@H]1CCOC[C@H]1F)OCCCn1nc(Cl)c3cnc(nc31)N2 (single isomer, unassigned) [Example 32, (+)-8-Chloro-2-((3S,4R) or (3R,4S)-3-fluorotetrahydro-2H-pyran-4-yl)-3-methyl-2,4,12,13-tetrahydro-11H-5,7-(azenometheno)dipyrazolo[3,4-b:5′,1′-g][1]oxa[4,6,8]triazacycloundecine]	6.1	15	<4	–	–	–
[2H]C([2H])([2H])c1c2c(nn1[C@H]1CCO[C@@H](C)C1)OCCCn1nc(Cl)c3cnc(nc31)N2 (single isomer, unassigned) [Example 52, (−)-8-Chloro-3-(methyl-d3)-2-((2R,4R) or (2S,4S)-2-methyltetrahydro-2H-pyranyl)-2,4,12,13-tetrahydro-11H-5,7-(azenometheno)dipyrazolo[3,4-b:5′,1′-g][1]oxa[4,6,8]triazacycloundecine]	10	19	<4	–	+GSH	–
[2H]C([2H])([2H])c1c2c(nn1[C@H]1CCCOCC1)OCCCn1nc(Cl)c3cnc(nc31)N2 (single isomer, unassigned) [Example 59, (−)-(R) or (S)-8-Chloro-3-(methyl-d3)-2-(oxepan-4-yl)-2,4,12,13-tetrahydro-11H-5,7-(azenometheno)dipyrazolo[3,4-b:5′,1′-g][1]oxa[4,6,8]triazacycloundecine]	6.2	17	6.67	–	–	–
[2H]C([2H])([2H])c1c2c(nn1[C@@H]1CCCOC1)OCCCn1nc(Cl)c3cnc(nc31)N2 (single isomer, unassigned) [Example 60, (R) or (S)-8-Chloro-3-(methyl-d3)-2-(tetrahydro-2H-pyran-3-yl)-2,4,12,13-tetrahydro-11H-5,7-(azenometheno)dipyrazolo[3,4-b:5′,1′-g][1]oxa[4,6,8]triazacycloundecine]	9	25	8.5	–	–	–
[2H]C([2H])([2H])c1c2c(nn1[C@@H]1CCCOC1)OCCCn1nc(Cl)c3cnc(nc31)N2 (single isomer, unassigned) [Example 61, (R) or (S)-8-Chloro-3-(methyl-d3)-2-(tetrahydro-2H-pyran-3-yl)-2,4,12,13-tetrahydro-11H-5,7-(azenometheno)dipyrazolo[3,4-b:5′,1′-g][1]oxa[4,6,8]triazacycloundecine]	10	34	<4	–	–	–

Compounds with a lower IC50 (LRRK2 G2019S), results first:

IC50 (LRRK2 G2019S) [nM]	IC50 (LRRK2 WT) [nM]	CLint [1] [mL/min/kg]	fuplasma (% free) [3] [% free]	Adduct detected in GSH supplemented HLMs (GSH adduct screening)	SMILES	other results
3.7	8.5	–	18.2	+GSH	CO[C@H]1CC[C@H](n2nc3c(c2C)Nc2ncc4c(Cl)nn(c4n2)CCCO3)CC1 [Example 37, 8-Chloro-2-((1r,4r)-4-methoxycyclohexyl)-3-methyl-2,4,12,13-tetrahydro-11H-5,7-(azenometheno)dipyrazolo[3,4-b:5′,1′-g][1]oxa[4,6,8]triazacycloundecine]	concentration at 0.5 h [2, 5]: 683 ± 139 ng/g; Kp at 0.5 h ([2]; oral gavage 10 mg/kg): 1.87 ± 0.76; Kp uu at 0.5 h ([2]; po, 10 mg/kg, oral gavage 10 mg/kg): 0.47 ± 0.19; concentration at 0.5 h [2, 6]: 391 ± 96 ng/mL; CLint scaled at 0.1 μM [4]: < 4 mL/min/kg
2.8	12	14.5	25.3	–	Cc1c2c(nn1[C@H]1CCCOC1)OCCCn1nc(Cl)c3cnc(nc31)N2 (single isomer, unassigned) [Example 4, (R) or (S)-8-Chloro-3-methyl-2-(tetrahydro-2H-pyran-3-yl)-2,4,12,13-tetrahydro-11H-5,7-(azenometheno)dipyrazolo[3,4-b:5′,1′-g][1]oxa[4,6,8]triazacycloundecine]	concentration at 1 h [2, 5]: 1360 ± 186 ng/g; Kp uu at 1 h ([2]; oral gavage 10 mg/kg): 0.42 ± 0.07; Kp at 1 h ([2]; oral gavage 10 mg/kg): 1.82 ± 0.33; concentration at 1 h [2, 6]: 758 ± 145 ng/mL
2.2	9.2	5.5	–	–	Cc1c2c(nn1[C@H]1CCCOC1)OCCCn1nc(Cl)c3cnc(nc31)N2 (single isomer, unassigned) [Example 3, (R) or (S)-8-Chloro-3-methyl-2-(tetrahydro-2H-pyran-3-yl)-2,4,12,13-tetrahydro-11H-5,7-(azenometheno)dipyrazolo[3,4-b:5′,1′-g][1]oxa[4,6,8]triazacycloundecine]	–
